US11613552B2, “Pharmaceutical agents, compositions, and methods relating thereto” (Alltech, Inc., priority 2017, dated 2023)

Key:
AML-12 cells = experiment: Glucose uptake assay in AML-12 cells; format: cell-based, mouse
Method: Equal numbers of amplified AML-12 cells were seeded on 96 well plates (1.5×10^5/well) and cultured in 10% FBS but ITS/Dex-free DMEM/F12 media overnight. Then these cells were washed twice with PBS (to remove any potential residual sera), and serum-starved in plain DMEM/F12 media overnight. These serum-starved AML-12 cells were treated without (basal), with insulin (10 and 100 nM) or Compound #43 (150, 300 and 600 ppb) in glucose/phenol red-free DMEM media at 37° C. for 1.5 hr. After treatment, media was removed and cells were washed once with PBS and incubated with 1 mM 2-deoxyglucose (2DG) at room temperature for 30 min. The 2DG-treated cells were then subjected to glucose uptake measurement using Promega's Glucose Uptake-Glo Assay kit, according to the manufacturer's protocol. Luminescent signals were recorded using a Bio-Tek luminometer.

G6pc [1] = experiment: QRT-PCR of 8-CPT/Dex-induced G6pc expression in AML-12 cells; format: cell-based, mouse; details: for G6pc mRNA level normalized by non-8-CPT/Dex-treated group: with 8-CPT/Dex (8-CPT/Dex alone 41.5)
Method: For RNA analysis of the diabetic stimuli-induced G6pc expression, the AML-12 cells were pretreated without or with Compound #43 (150 or 300 ppb) in 10% FBS but ITS/Dex-free DMEM/F12 media for 24 hr. Then these cells were washed twice with PBS remove any residual sera, and incubated with Compound #43 (150 or 300 ppb) in the presence or absence of insulin (10 or 100 nM), or 0.1 mM 8-CPT (Sigma) and 0.5 μM Dex in serum-free plain DMEM/F12 media for another 6 hours.
(§1) Total RNA from saline- or selenium compound-treated Lepr^db/db mice was isolated using a Qiagen RNAeasy RNA isolation kit according to the Manufacturer's protocol. Total RNA from cultured cells was isolated using Trizol (Invitrogen) according to the manufacturer's protocol, and then incubated with DNase I to remove any potential contaminating genomic DNA. RNA samples were subjected to real-time PCR (QRT-PCR) analysis using Applied-Bioscience's RT kit and predesigned Taqman probes (Invitrogen), as described previously (Lan et al EMBO J 2003). Data were normalized by Actin B (Actb) mRNA levels in each sample, and are presented as mean±SEM of 3-5 samples.

G6PC [2] = experiment: QRT-PCR of G6PC expression in HepG2 cells; format: cell-based, human; details: 100 nM insulin or 600 ppb Compound #43, serum-free, 40 hr (FIG. 10B)
Method: (§2) For RNA analysis of basal G6pc expression (without the presence of diabetic stimuli: 8-CPT/Dex), amplified AML-12 and HepG2 cells were cultured on 24-well plates (0.5-2×10^5 cells/well) overnight in 10% FBS ITS- and Dex-free DMEM/F12 media and 10% FBS EMEM media, respectively. These cells were rinsed twice with PBS to remove residual sera. Then, the PBS-washed HepG2 cells were treated without or with insulin or Compound #43 in serum-free EMEM media for 40 hr. In some experiments, the PBS-washed AML-12 cells were incubated without or with Compound #43 or other selenium compounds in serum-free DMEM/F12 media for 24 hours. In other experiments, amplified AML-12 cells were pretreated without or with Compound #43 (150 or 300 ppb) in 10% FBS but ITS/Dex-free DMEM/F12 media for 24 hr. After 24 hr treatment, AML-12 cells were washed twice with PBS (to remove any residual serum in the culture) and then treated with insulin, Compound #43 or both, in the serum-free DMEM/Dex media for 6 hr.
Total RNA from saline- or selenium compound-treated Lepr^db/db mice was isolated using a Qiagen RNAeasy RNA isolation kit according to the Manufacturer's protocol. Total RNA from cultured cells was isolated using Trizol (Invitrogen) according to the manufacturer's protocol, and then incubated with DNase I to remove any potential contaminating genomic DNA. […]

[3] = target: T1, native insulin receptor (Insr) (Rattus norvegicus, UniProt P15127); experiment: In vitro cell-free phosphorylation of native insulin receptor; format: biochemical
T1 construct: native insulin receptor proteins, containing both alpha and beta subunits; purchased Sigma I9266; host or cells: purified from rat liver tissue
Method: In vitro phosphorylation of Insr was performed according to Sigma's protocol with the following modifications. In brief, 10 μl of native insulin receptor solution containing 0.8 μl of original native INSR stock solution (Sigma, Catalog #I9266; diluted in enzyme dilution buffer containing 50 mM HEPES, pH 7.6, 150 mM NaCl and 0.1% Triton X-100) were incubated with equal volume of solutions containing insulin (Sigma), DMSO (Compound #43 solvent), Compound #43 or Compound #68 (diluted in 50 mM HEPES, pH 7.6 and 100 μg/ml bovine serum albumin) on ice for 30 min. Then 20 μl of 2× kinase buffer containing 0.2 mM ATP, 50 mM HEPES, pH 7.6, 50 mM MgCl2 and 4 mM MnCl2 were added to the above reactions, mixed and incubated on ice for 45 minutes.
Five microliters of the above reactions were immediately subjected to Western blot analysis using specific antibodies against phosphorylated tyrosine residues at 1146, 1150 and 1151 of Insrβ proteins (Cell Signaling Inc.). Protein band density was determined using the NIH Image J software.

G6pc [4] = experiment: QRT-PCR of basal G6pc expression in AML-12 cells; format: cell-based, mouse
Method: as §2, §1

T1 sequence (P15127 764-1383 limits assumed): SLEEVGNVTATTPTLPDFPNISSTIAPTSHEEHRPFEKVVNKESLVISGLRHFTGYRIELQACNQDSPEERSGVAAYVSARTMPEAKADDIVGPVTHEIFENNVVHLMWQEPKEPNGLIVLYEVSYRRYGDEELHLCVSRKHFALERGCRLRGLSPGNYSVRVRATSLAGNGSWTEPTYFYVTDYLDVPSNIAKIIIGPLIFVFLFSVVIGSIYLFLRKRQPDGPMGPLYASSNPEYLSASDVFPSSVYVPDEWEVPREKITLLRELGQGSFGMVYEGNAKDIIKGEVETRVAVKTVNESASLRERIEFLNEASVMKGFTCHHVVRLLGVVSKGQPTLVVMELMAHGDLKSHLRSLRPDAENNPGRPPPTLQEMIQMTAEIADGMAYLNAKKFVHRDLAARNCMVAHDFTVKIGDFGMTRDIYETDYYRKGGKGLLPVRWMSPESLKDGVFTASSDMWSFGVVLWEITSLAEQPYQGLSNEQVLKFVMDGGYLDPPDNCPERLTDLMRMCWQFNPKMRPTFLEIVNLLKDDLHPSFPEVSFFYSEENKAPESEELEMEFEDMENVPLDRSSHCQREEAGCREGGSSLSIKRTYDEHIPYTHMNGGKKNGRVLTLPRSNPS
T1 sequence (P15127 27-759 partner limits assumed): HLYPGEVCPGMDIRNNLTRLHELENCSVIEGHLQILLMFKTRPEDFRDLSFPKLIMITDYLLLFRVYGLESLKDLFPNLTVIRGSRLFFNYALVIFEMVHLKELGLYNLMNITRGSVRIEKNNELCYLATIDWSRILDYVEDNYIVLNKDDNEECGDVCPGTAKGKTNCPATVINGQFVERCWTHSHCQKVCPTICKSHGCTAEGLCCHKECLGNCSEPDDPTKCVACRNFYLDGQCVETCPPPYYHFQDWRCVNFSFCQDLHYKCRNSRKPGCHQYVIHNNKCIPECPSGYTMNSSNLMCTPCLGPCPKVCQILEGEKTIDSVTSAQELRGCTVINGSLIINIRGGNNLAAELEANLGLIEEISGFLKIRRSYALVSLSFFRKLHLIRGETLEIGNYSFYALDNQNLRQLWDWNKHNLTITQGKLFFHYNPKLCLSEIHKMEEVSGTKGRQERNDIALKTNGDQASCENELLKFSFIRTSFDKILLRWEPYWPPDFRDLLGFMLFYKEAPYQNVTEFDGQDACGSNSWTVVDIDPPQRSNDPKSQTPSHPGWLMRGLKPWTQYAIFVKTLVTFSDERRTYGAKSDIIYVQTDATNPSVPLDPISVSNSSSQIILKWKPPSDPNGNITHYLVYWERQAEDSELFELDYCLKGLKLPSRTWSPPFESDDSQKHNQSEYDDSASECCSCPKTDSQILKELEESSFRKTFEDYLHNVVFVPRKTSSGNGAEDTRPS

Molecule	effect on glucose uptake (AML-12 cells; 150, 300 and 600 ppb, 1.5 hr (FIG. 17))	extent of increased glucose uptake (AML-12 cells; 600 ppb, 1.5 hr)	time to stimulate glucose uptake (AML-12 cells; serum-free)	reduction of 8-CPT/Dex-induced G6pc expression vs 8-CPT/Dex group (G6pc [1]; 150 and 300 ppb alone) [%]	effect on 8-CPT/Dex-induced G6pc expression (G6pc [1]; 150 or 300 ppb co-treated with 100 nM insulin)	G6pc mRNA level normalized by non-8-CPT/Dex-treated group (G6pc [1]; 150 ppb, Column #5 FIG. 11)	G6pc mRNA level normalized by non-8-CPT/Dex-treated group (G6pc [1]; 300 ppb, Column #8 FIG. 11)	effect on G6PC expression (G6PC [2])	phosphorylation of Insrβ at Y1146/1150/1151 ([3]; doses of 1.9 and 3.8, cell-free (FIG. 26))	effect on G6pc expression (G6pc [4]; 150 and 300 ppb, 24 hr pretreatment then 6 hr retreatment (FIG. 10C))	decrease of G6pc expression vs Control (G6pc [4]; 300 ppb selenium (3.8 μM of each compound), serum-free, 24 hr (FIG. 10A)) [%]	decrease in G6pc mRNA levels vs either agent alone (G6pc [4]; pretreatment then co-treatment with 10 nM insulin, 6 hr (FIG. 10C))	effect on glucose uptake (AML-12 cells; 10 nM insulin, 1.5 hr)	effect on glucose uptake (AML-12 cells; 100 nM insulin, 1.5 hr)	effect on 8-CPT/Dex-induced G6pc expression (G6pc [1]; 10 nM and 100 nM insulin, 6 hr)	phosphorylation of Insrβ at Y1146/1150/1151 ([3]; insulin 0.5 μM, cell-free (FIG. 26))	decrease of G6pc mRNA levels vs Control (G6pc [4]; 10 nM insulin, serum-free, 6 hr (FIG. 10C))
C[Se]C[C@H]1O[C@@H](n2cnc3c(N)ncnc32)C(OC(C)=O)C1OC(C)=O (stereo partly drawn) [Compound #43, Adenosine, 5′-Se-methyl-5′-selino-, 2′,3′-diacetate]	significant increase of glucose uptake	comparable to 100 nM insulin	less than 1.5 hr	~68	almost completely abolished 8-CPT/Dex-induced G6pc expression	13	13.5	significantly attenuated	significantly enhance the phosphorylation of Insrβ at Y1146/1150/1151	significant decrease of G6pc expression with the decrease levels comparable to 10 nM insulin	~60	more pronounced					
insulin: insulin purchased from Sigma, positive control								significant decrease of G6PC expression					did not enhance the glucose uptake	significant increase of glucose uptake	significantly decreased 8-CPT/Dex-induced G6pc expression	able to induce the phosphorylation of Insrβ at Y1146/1150/1151	about 65%
